{"source": "paper PMC8297771", "about": "(PLoS Pathogens, 2021)", "key": {"MT4 cells": {"test_system": "MT4 cells", "test": "Tissue culture cytotoxicity measurement in MT4 cells", "assay_type": "cell-based", "excerpt": "Fig 1 ALLINI structures and STP0404 activities. […] Pyridine-based KF116, D. Pyrrolopyridine-based STP0404. The conserved chemical moiety containing tert-butoxy and carboxylic acid groups are marked by “]”."}, "cytochrome P450 enzymes": {"test_system": "cytochrome P450 enzymes", "test": "Cytochrome P450 inhibition assay in human liver microsomes", "assay_type": "in vitro ADME", "details": "8 different cytochrome P450 enzymes", "procedure": "The final concentrations of test article in incubation system were 0, 0.15, 0.5, 1.5, 5, 15 and 50 μM. The inhibition of CYP1A2, 2B6, 2C8, 2C9, 2C19, 2D6, and 3A4 in human liver microsomes was measured as the percentage decrease in the activity of marker metabolite formation compared to non-inhibited controls (= 100% activity). The rate of formation of isoform-specific metabolites derived from marker substrates were measured by UPLC-MS/MS. The IC50 values were calculated with the metabolites decrease percentages of test samples to vehicle samples. All incubations were performed in triplicate (Pharmaron, China)."}, "[1]": {"test_system": "HIV-1_89.6 particles produced from 293 T cells", "test": "TEM analysis of HIV-1 particle morphology", "assay_type": "cell-based", "details": "viruses produced from treated 293T cells; 1 μM", "procedure": "293T cells were transfected with plasmids containing proviral clones encoding WT HIV-1 89.6 using polyethylenimine (PEI). After 6 hrs, cells were rinsed with DPBS gently, and then cells were resuspended in a fresh media with or without the inhibitor (1 μM, final). At 96 hrs post-transfection, cell cultures were centrifuged (1,800 xg) and filtered through 0.45 μm filter to remove cells and any cell debris, and viruses were harvested by centrifugation at 100,000 xg for 1.5 hrs in the presence of TNE sucrose buffer (5% sucrose, final). The pellets were fixed in a buffer containing 0.1 M Na cacodylate at pH 7.4 and 2.5% Glutaraldehyde, and submitted to Emory Integrated Core Facilities for sectioning, followed by TEM. Virus pellets were dehydrated in a graduated ethanol series and embedded in Epon resin. Ultrathin sections were stained using uranyl acetate and observed under a transmission electron microscope (JEOL JEM-1400), equipped with Gatan CCD camera at the Emory Integrated Electron Microscopy Core. Total of approximately 1,000 virions each (with or without the inhibitor treatment) were captured in the images obtained for comparisons in virion morphology."}, "CYP3A and PXR": {"test_system": "CYP3A and PXR", "test": "PXR induction in DPX2 cells", "assay_type": "in vitro ADME", "procedure": "STP0404 to activate PXR, and thereby to induce CYP3A4 expression in DPX2 cell lines following in vitro administration. […] After 48 hrs incubation, the cell viability was assessed fluorimetrically via CellTiter-FluorTM. CYP3A-mediated metabolism and PXR activation are measured using luminescence with Luciferin-IPA and ONE-GloTM, respectively. The light intensity is directly proportional to the extent of PXR activation and accompanying gene transcription in the DPX2 cells (Wuxi AppTec, China)."}, "bone marrow cells": {"test_system": "bone marrow cells", "test": "Micronucleus study by oral administration in rats (GLP)", "assay_type": "in vivo, SD rats", "details": "500, 1000 and 2000 mg/kg/day", "procedure": "Bacterial reverse mutation assay (Study no. YL18407). The bacterial reverse mutation assay of STP0404 was performed in two conditions (with or without metabolic activation) for the dose range-finding test (doses of STP0404rangingfrom 2.29 to 5,000μg/plate) and the main test (doses of STP0404 ranging from 19.5 to 5,000 μg/plate) in comparison with negative control (DMSO) and active controls (sodium azide, 2-(2-furyl)-3-(5-nitro-2-furyl) acrylamide, 2-aminoanthracene, 9-aminoacridine hydrochloride). Salmonella typhimurium (TA100, TA1535) and Escherichia coli (WP2uvrA) were used for detection of base-pair substitutions. Salmonella typhimurium (TA98, TA1537) was used for detection of frameshift mutations. Chromosomal Aberration Test of STP0404 in Cultured Mammalian Cells (Study no. YL18408). Presence/absence of genotoxicity of STP0404 was determined using chromosomal aberration test carried out in CHL/IU cells. The test comprised a dose range-finding test and a main test. Micronucleus Study of STP0404 by oral administration in Rats (Study no. YL18409). STP0404 was administered orally to SD rats (3/group in preliminary test and 6/group in the main test) at dose levels of 500, 1000 and 2000 mg/kg/day once daily for 2 days in a two-test study (preliminary test and main test) to investigate the genotoxicity profile of STP0404. […] Bone marrow smear slides were evaluated (INA Research, Japan)."}, "[2]": {"test_system": "HIV-1_89.6 passage 14 viral population (Y99H and A128T)", "test": "Susceptibility of STP0404-selected viral population, passage 14, in CEMx174 cells", "assay_type": "cell-based", "details": "passage 14 viral population (Y99H and A128T) vs wild type HIV-1_89.6", "procedure": "CEM x174 cells infected with HIV primary isolate 89.6 were cultured in the presence of STP0404 at the concentration of IC90 determined earlier. At each passage, cells from original culture in the presence of inhibitor (0.75x10^6 cells) were mixed with equal amount of no-drug control cells to propagate, and viral replication was monitored by the production of p24 antigen in the supernatant. […] The population of drug-induced mutations at each passage mentioned above was determined by sequencing of at least 10 resulting transformants.\nCEM x174 cells were infected with cell-free viral supernatant collected during virus resistance assays above. […] The viral stocks were normalized by the amount of p24 capsid antigen, determined to infect CEMx174 cells at approximately 10% of populations (10,000 pg / 10^6 cells). […] Cell-free supernatants were measured for p24 antigen production 5 days post-infection. p89.6 plasmid was applied for Quickchange kit (Invitrogen) to create Y99H single, A128T single, Y99H/A128T double mutants as well as two natural variants (A124N and T125A), and these 89.6 variant viruses were generated by transfecting 293T cells and culturing the produced viruses in CEMx174 cells. The IC50 of STP0404 against respective viruses were analyzed using GraphPad Prism (Version 9) and presented as means ± S.D. of triplicates. […]"}}}
{"smiles": "Cc1nc2c(c(C)c(C)n2Cc2cnn(C)c2)c(-c2ccc(Cl)cc2)c1[C@H](OC(C)(C)C)C(=O)O", "note": "[STP0404]", "values": [{"measurement": "TC50", "setting": "MT4 cells", "result": "> 10,000 nM"}, {"measurement": "inhibition of cytochrome P450 enzymes (in words)", "setting": "cytochrome P450 enzymes", "result": "low (high μM) or no inhibition (NI)"}, {"measurement": "localization of viral RNA genomes in virus particles (TEM)", "setting": "[1]", "result": "viral RNA genomes outside of the capsid"}, {"measurement": "EC50 to activate drug metabolizing factors (in words)", "setting": "CYP3A and PXR", "result": "comparatively high concentrations"}, {"measurement": "bone marrow cell proliferation inhibitory potential", "setting": "bone marrow cells", "result": "lacked"}, {"measurement": "micronucleus-inducing potential", "setting": "bone marrow cells", "result": "lacked"}, {"measurement": "IC50 fold increase", "setting": "[2]", "result": 61.4, "unit": "fold"}]}
